Entries after “also recorded” stand apart in the source; their conditions may differ. Peptide text beside a SMILES is read from it.
Test: Thermal denaturation of trimeric coiled coil peptides by CD thermal scan (signal at 222 nm versus temperature, curve fitting)
Format: physicochemical
Conditions: for effect of core substitution on stability (transition temperature) compared to the reference peptide comprising isoleucine at positions 3a and 3d: core mutants at positions 3a and 3d of the reference peptide with glutamine at 2a, Figure 9
Description: The said synthesized peptide was dissolved at a concentration of 292 microM in 20 mM phosphate buffer (PBS), 150 mM NaCl, pH 7.2. The CD spectra were measured between […], at 5 and 90 degrees Celsius (Figure 3). The spectrum at 5 degrees Celsius was indicative of a high alpha-helical secondary structure content, in agreement with the expectation that all heptad regions, but not all of the flanking residues, would assemble as alpha-helical coiled coils.
To analyse whether the temperature-induced transition between helical and nonhelical states was reversible, a forward (up) and backward (down) thermal scan was performed on the same sample, by recording the CD signal at […] as a function of temperature at a scanning rate of about 1 degree Celsius per minute (Figure 4). It was observed that the up and down scans almost perfectly coincided, thereby confirming the quantitative unfolding and refolding of the peptides in the sample.
It was further analyzed whether the thermal unfolding curve of Figure 4 conformed to the thermodynamic equations describing the equilibrium folding/unfolding reaction between three molecules free (monomeric) peptide and one entity of folded (trimeric) complex. This reaction is generally written as 3 peptide <=> peptide3 wherein "<=>" refers to a chemical equilibrium, "peptide" to a monomeric peptide in solution and "peptide3" to a trimeric entity in the folded (assembled, associated) state. This thermal unfolding curve was fitted to the theoretic equations: θ(T) = θM (T) + (θT(T)-θM(T))(1+root(F(-(1)/(2)+sqrt((1)/(4) + (F)/(27))), 3)+root(F(-(1)/(2)-sqrt((1)/(4) + (F)/(27))), 3)) [formula] wherein F = (exp(-(ΔHt)/(RT)(1-T/T1)-(ΔCp)/(RT)(T-Tt-Tln(T/Tt))))/(4) [formula] and T≡ the temperature, in degrees Kelvin, of the sample θ(T)≡ the CD-signal [theta]222 nm, in deg cm^2 dmol^-1, as a function of T θM(T)≡ the CD-signal for 100% free (monomeric) peptide as a function of T θT(T) ≡ the CD-signal for 100% associated (trimeric) peptide as a function of T Tt ≡ the transition temperature, where 50% of the total peptide concentration is associated ΔHt ≡ the enthalpy difference, in kJ per mole peptide, between mono- and trimeric states ΔCp ≡ the heat capacity difference, in J mol^-1 K^-1, between mono- and trimeric states R ≡ the ideal (universal) gas constant ≡ 8.31 J mol^-1 K^-1
The global CD signal was somewhat lower than expected, which could be due to an instrumental deviation, an error in the concentration determination, a lower purity, or a lower than expected alpha-helical content. Nevertheless, the main goal of this experiment was to examine the effect of the glutamine-to-isoleucine mutant on the stability of the complex. […] The estimated transition temperature was around 97 degrees Celsius, although the latter was difficult to determine because of incompleteness of the transition.
All ten peptides were analyzed by thermal CD scanning as in Examples 3 and 4. Fitting of the thermal denaturation curves, as described in Example 3, gave the corresponding transition temperatures shown in Figure 9. […]

Row | effect of core substitution on stability (transition temperature) compared to the reference peptide comprising isoleucine at positions 3a and 3d | Structure (SMILES) | thermal stability (resistance against thermal denaturation), in words (CD thermal scan) | other results
1 | disruptive | CC[C@H](C)[C@H](NC(=O)[C@H](C)NC(=O)[C@H](C)NC(=O)[C@H](CCC(N)=O)NC(=O)[C@H](CCC(N)=O)NC(=O)[C@H](CCCCN)NC(=O)[C@H](CCC(N)=O)NC(=O)[C@@H](NC(=O)[C@H](CCC(=O)O)NC(=O)[C@H](CCC(=O)O)NC(=O)[C@@H](NC(=O)[C@H](CO)NC(=O)[C@H](CCSC)NC(C)=O)[C@@H](C)CC)[C@@H](C)CC)C(=O)N[C@@H](CCC(N)=O)C(=O)N[C@@H](CCCCN)C(=O)N[C@@H](CCC(N)=O)C(=O)N[C@H](C(=O)N[C@@H](C)C(=O)N[C@@H](C)C(=O)N[C@@H](CCC(N)=O)C(=O)N[C@@H](CCC(N)=O)C(=O)N[C@@H](CCCCN)C(=O)N[C@@H](CCC(N)=O)C(=O)N[C@H](C(=O)N[C@@H](Cc1ccc(O)cc1)C(=O)N[C@@H](CCCNC(=N)N)C(=O)N[C@@H](CCSC)C(=O)N[C@H](C(=O)N1CCC[C@H]1C(N)=O)[C@@H](C)O)[C@@H](C)CC)[C@@H](C)CC [3dQ] (Ac-MSIEEIQKQQAAIQKQIAAQQKQIYRMTP-NH2) |  | 
2 | disruptive | CC[C@H](C)[C@H](NC(=O)[C@H](C)NC(=O)[C@H](C)NC(=O)[C@H](CCC(N)=O)NC(=O)[C@H](CCC(N)=O)NC(=O)[C@H](CCCCN)NC(=O)[C@H](CCC(N)=O)NC(=O)[C@@H](NC(=O)[C@H](CCC(=O)O)NC(=O)[C@H](CCC(=O)O)NC(=O)[C@@H](NC(=O)[C@H](CO)NC(=O)[C@H](CCSC)NC(C)=O)[C@@H](C)CC)[C@@H](C)CC)C(=O)N[C@@H](CCC(N)=O)C(=O)N[C@@H](CCCCN)C(=O)N[C@@H](CCC(N)=O)C(=O)N[C@H](C(=O)N[C@@H](C)C(=O)N[C@@H](C)C(=O)N[C@@H](CO)C(=O)N[C@@H](CCC(N)=O)C(=O)N[C@@H](CCCCN)C(=O)N[C@@H](CCC(N)=O)C(=O)N[C@H](C(=O)N[C@@H](Cc1ccc(O)cc1)C(=O)N[C@@H](CCCNC(=N)N)C(=O)N[C@@H](CCSC)C(=O)N[C@H](C(=O)N1CCC[C@H]1C(N)=O)[C@@H](C)O)[C@@H](C)CC)[C@@H](C)CC [3dS] (Ac-MSIEEIQKQQAAIQKQIAASQKQIYRMTP-NH2) |  | 
3 | relatively strong | CC[C@H](C)[C@H](NC(=O)[C@H](C)NC(=O)[C@H](C)NC(=O)[C@H](CCC(N)=O)NC(=O)[C@H](CCC(N)=O)NC(=O)[C@H](CCCCN)NC(=O)[C@H](CCC(N)=O)NC(=O)[C@@H](NC(=O)[C@H](CCC(=O)O)NC(=O)[C@H](CCC(=O)O)NC(=O)[C@@H](NC(=O)[C@H](CO)NC(=O)[C@H](CCSC)NC(C)=O)[C@@H](C)CC)[C@@H](C)CC)C(=O)N[C@@H](CCC(N)=O)C(=O)N[C@@H](CCCCN)C(=O)N[C@@H](CCC(N)=O)C(=O)N[C@H](C(=O)N[C@@H](C)C(=O)N[C@@H](C)C(=O)N[C@H](C(=O)N[C@@H](CCC(N)=O)C(=O)N[C@@H](CCCCN)C(=O)N[C@@H](CCC(N)=O)C(=O)N[C@H](C(=O)N[C@@H](Cc1ccc(O)cc1)C(=O)N[C@@H](CCCNC(=N)N)C(=O)N[C@@H](CCSC)C(=O)N[C@H](C(=O)N1CCC[C@H]1C(N)=O)[C@@H](C)O)[C@@H](C)CC)C(C)C)[C@@H](C)CC [3dV] (Ac-MSIEEIQKQQAAIQKQIAAVQKQIYRMTP-NH2) |  | 
4 |  | CC[C@H](C)[C@H](NC(=O)[C@H](C)NC(=O)[C@H](C)NC(=O)[C@@H](NC(=O)[C@H](CCC(N)=O)NC(=O)[C@H](CCCCN)NC(=O)[C@H](CCC(N)=O)NC(=O)[C@@H](NC(=O)[C@H](CCC(=O)O)NC(=O)[C@H](CCC(=O)O)NC(=O)[C@@H](NC(=O)[C@H](CO)NC(=O)[C@H](CCSC)NC(C)=O)[C@@H](C)CC)[C@@H](C)CC)[C@@H](C)CC)C(=O)N[C@@H](CCC(N)=O)C(=O)N[C@@H](CCCCN)C(=O)N[C@@H](CCC(N)=O)C(=O)N[C@H](C(=O)N[C@@H](C)C(=O)N[C@@H](C)C(=O)N[C@H](C(=O)N[C@@H](CCC(N)=O)C(=O)N[C@@H](CCCCN)C(=O)N[C@@H](CCC(N)=O)C(=O)N[C@H](C(=O)N[C@@H](Cc1ccc(O)cc1)C(=O)N[C@@H](CCCNC(=N)N)C(=O)N[C@@H](CCSC)C(=O)N[C@H](C(=O)N1CCC[C@H]1C(N)=O)[C@@H](C)O)[C@@H](C)CC)[C@@H](C)CC)[C@@H](C)CC [Q2aI] (Ac-MSIEEIQKQIAAIQKQIAAIQKQIYRMTP-NH2) | extremely thermostable; also recorded: thermally stable | estimated transition temperature (292 microM peptide in 20 mM phosphate buffer (PBS), 150 mM NaCl, pH 7.2, CD signal at 222 nM, difficult to determine because transition incomplete): around 97 degrees Celsius; did not quantitatively unfold up to (CD thermal scan): 95 degrees Celsius; thermal stability (resistance against thermal denaturation), in words (CD thermal scan, listed as all-isoleucine core peptide): very high thermal stability; reversibility of thermal unfolding (down-scan recovery of the CD signal) (up and down thermal scan, about 1 degree Celsius per minute): full reversibility
5 |  | CC[C@H](C)[C@H](NC(=O)[C@H](C)NC(=O)[C@H](C)NC(=O)[C@H](CCC(N)=O)NC(=O)[C@H](CCC(N)=O)NC(=O)[C@H](CCCCN)NC(=O)[C@H](CCC(N)=O)NC(=O)[C@@H](NC(=O)[C@H](CCC(=O)O)NC(=O)[C@H](CCC(=O)O)NC(=O)[C@@H](NC(=O)[C@H](CO)NC(=O)[C@H](CCSC)NC(C)=O)[C@@H](C)CC)[C@@H](C)CC)C(=O)N[C@@H](CCC(N)=O)C(=O)N[C@@H](CCCCN)C(=O)N[C@@H](CCC(N)=O)C(=O)N[C@H](C(=O)N[C@@H](C)C(=O)N[C@@H](C)C(=O)N[C@H](C(=O)N[C@@H](CCC(N)=O)C(=O)N[C@@H](CCCCN)C(=O)N[C@@H](CCC(N)=O)C(=O)N[C@H](C(=O)N[C@@H](Cc1ccc(O)cc1)C(=O)N[C@@H](CCCNC(=N)N)C(=O)N[C@@H](CCSC)C(=O)N[C@H](C(=O)N1CCC[C@H]1C(N)=O)[C@@H](C)O)[C@@H](C)CC)[C@@H](C)CC)[C@@H](C)CC [Q2a] (Ac-MSIEEIQKQQAAIQKQIAAIQKQIYRMTP-NH2) | moderately stable | 

Reference: EP2161278B1, “Single-chain coiled coil scaffold” (Complix N.V., priority 2008, dated 2010)
